Measurements reported in the NIST ThermoML archive (doi:10.1016/j.tca.2016.05.013).
Numbers after ± are expanded uncertainties.

Tests used:
[1] = refractive index (Na D-line) (dimensionless); settings: 86.8 kPa, Liquid, Standard Abbe refractometry
[2] = 86.8 kPa, Liquid; for speed of sound: Frequency=3 MHz, Sing-around technique in a fixed-path interferometer; for mass density: Vibrating tube method
[3] = refractive index (Na D-line) (dimensionless); mn = molality of the nth substance listed, in mol/kg; settings: 86.8 kPa, Liquid, Standard Abbe refractometry, m2 = 0

Row | refractive index ([1]; 288.15 K) | refractive index ([1]; 298.15 K) | refractive index ([1]; 308.15 K) | refractive index ([1]; 318.15 K) | speed of sound ([2]; 288.15 K) | mass density ([2]; 288.15 K) | speed of sound ([2]; 298.15 K) | mass density ([2]; 298.15 K) | speed of sound ([2]; 308.15 K) | mass density ([2]; 308.15 K) | speed of sound ([2]; 318.15 K) | mass density ([2]; 318.15 K) | refractive index ([3]; 288.15 K) | refractive index ([3]; 298.15 K) | refractive index ([3]; 308.15 K) | refractive index ([3]; 318.15 K) | Compound
1 | 1.6503 ± 0.004 | 1.647 ± 0.004 | 1.6442 ± 0.004 | 1.6413 ± 0.004 | 1721.6 ± 2.4 m/s | 1155.72 ± 1.6 kg/m3 | 1679.2 ± 2.4 m/s | 1148.81 ± 1.6 kg/m3 | 1640.9 ± 2.4 m/s | 1142.02 ± 1.6 kg/m3 | 1606.1 ± 2.4 m/s | 1135.41 ± 1.6 kg/m3 | – | – | – | – | CCCCn1cc[n+](C)c1.O=C([O-])c1ccccc1O [1-butyl-3-methylimidazolium salicylate]
2 | – | – | – | – | – | – | – | – | – | – | – | – | 1.3329 ± 0.004 | 1.3323 ± 0.004 | 1.3316 ± 0.004 | 1.3305 ± 0.004 | O [water] + CCCCn1cc[n+](C)c1.O=C([O-])c1ccccc1O
